Results from US6852710B2, “2-alkoxyestradiol analogs with antiproliferative and antimitotic activity” (Southwest Foundation for Biomedical Research, priority 2001, dated 2005).

Legend:
[1] = system: NCI/ADR cells; test: SRB assay, inhibition of proliferation, multidrug resistant line; format: cell-based, human; conditions: for IC50: Homo sapiens, NCI/ADR-RES, NCI/ADR multidrug resistant, 48 hours, n=3 mean±SD; for NCI-ADR/MDA-MB-435 resistance factor: IC50 in NCI/ADR divided by IC50 in MDA-MB-435
Source text: The SK-OV-3 cell line was derived from ovarian carcinoma, the MDA-MB-435 and NCI/ADR from breast adenocarcinoma, PC3 and DU 145 from prostate carcinoma and HeLa from cervical carcinoma. The SK-OV-3, HeLa, PC3, and DU 145 and cell lines were obtained from the American Type Culture Collection, 10801 University Blvd., Manassas, Va. 20110-2209. The MDA-MB-435 cell line was obtained from the Lombardi Cancer Center of Georgetown University School of Medicine and the NCI/ADR cell line was obtained from the National Cancer Institute, Fairview Center, Suite 204, 1003 West 7th Street, Frederick, Md. 21701-8531.
(§1) Cells were plated into 96 well plates and allowed to grow and attach for 18-24 hours and then the drugs or vehicle controls were added to the wells. Each data point represents the mean of three experiments, each of which consisted of three replicates within an experiment. The cells were incubated with the drugs for 48 hours and then the cellular protein was fixed and quantified using the sulforhodamine B (SRB) assay. The absorbance of the dye is linear with respect to both cell protein and cell number (Skehan, P.; Storeng, R.; Scudiero, D., Monks; A., McMahon, J.; Vistica, D., Warren, J. T.; Bokesch, H., Kenney, S.; and Boyd, M. R., “New colorimetric cytotoxicity assay for anticancer-drug screening”, J. Natl. Cancer Inst, 82, 1107-1112 (1990)). The effects of the drugs were compared to vehicle controls and the data plotted as percent of control vs. log of drug concentration.
(§2) The IC50 is defined as the drug concentration required to inhibit cell proliferation 50% and is calculated from the linear portion of the log concentration response curve.
(§3) The IC50 values for inhibition of proliferation were calculated from the log dose response curve (n=3, mean±SD).
The effects of the analogs on a multi-drug resistant cell line were also studied. The NCI/ADR cell line is resistant to many chemotherapeutic agents by virtue of its high expression of the drug efflux pump P-glycoprotein. The NCI/ADR cell line was obtained from the National Cancer Institute, Fairview Center, Suite 204, 1003 West 7th Street, Frederick, Md. 21701-8531.
The IC50 values for inhibition of proliferation were calculated from the dose-response curves. The values represent the mean of 3 experiments ±SD. Resistance factors were calculated by dividing the IC50 of the resistant cell line, NCI/ADR, by the IC50 in a drug sensitive cell line, MDA-MB-435.

[2] = system: HeLa cells; test: SRB assay, inhibition of proliferation; format: cell-based; conditions: Homo sapiens, 48 hours, n=3 mean±SD
Experimental: (§4) The 4 analogs of 2-ME2 set forth in Table 1 were tested for antiproliferative activity against 6 human tumor cell lines. The SK-OV-3 cell line was derived from ovarian carcinoma, the MDA-MB-435 and NCI/ADR from breast adenocarcinoma, PC3 and DU 145 from prostate carcinoma and HeLa from cervical carcinoma. The SK-OV-3, HeLa, PC3, and DU 145 and cell lines were obtained from the American Type Culture Collection, 10801 University Blvd., Manassas, Va. 20110-2209. The MDA-MB-435 cell line was obtained from the Lombardi Cancer Center of Georgetown University School of Medicine and the NCI/ADR cell line was obtained from the National Cancer Institute, Fairview Center, Suite 204, 1003 West 7th Street, Frederick, Md. 21701-8531.
as §1, §2, §3

[3] = system: PC3 cells; test: SRB assay, inhibition of proliferation; format: cell-based; conditions: Homo sapiens, PC-3; PC3, 48 hours, n=3 mean±SD
Experimental: as §4, §1, §2, §3

[4] = system: SK-OV-3 cells; test: SRB assay, inhibition of proliferation; format: cell-based; conditions: Homo sapiens; SK-OV-3, 48 hours, n=3 mean±SD
Experimental: as §4, §1, §2, §3

[5] = system: DU 145 cells; test: SRB assay, inhibition of proliferation; format: cell-based, human; conditions: for IC50: Homo sapiens, DU 145, 48 hours, n=3 mean±SD; for potency relative to 2-ME2: DU 145 cell line
Experimental: as §4, §1, §2, §3

[6] = system: MDA-MB-435 cells; test: SRB assay, inhibition of proliferation; format: cell-based, human; conditions: for IC50: Homo sapiens, MDA-MB-435, 48 hours, n=3 mean±SD
Experimental: as §4, §1, §2, §3

[7] = system: Human Umbilical Vein Endothelial Cells (HUVEC); test: HUVEC proliferation (SRB assay); format: cell-based; conditions: for potency relative to 2-ME2, HUVEC proliferation: in words; for IC50: Homo sapiens, HUVEC, SRB assay
Source text: FIG. 2 illustrates the effects of compounds on Human Umbilical Vein Endothelial Cells (HUVEC) proliferation. The SRB assay was used to construct the dose response curves of the agents in HUVEC cells. n=3±SD;
Two in vitro assays were used to detect the potential for antiangiogenic activity of the analogs. One assay tested the ability of the analogs to inhibit the cellular proliferation of endothelial cells as shown below (Table 4). The ability of the analogs to inhibit the proliferation of endothelial cells was tested and compared to the effects of 2-ME2. Drugs that have antiangiogenic activity inhibit the proliferation of endothelial cells.

[8] = system: Human Umbilical Vein Endothelial Cells (HUVEC); test: HUVEC invasion, Matrigel invasion chambers; format: cell-based; conditions: for IC50: Homo sapiens, HUVEC, Matrigel, 24 hours
Source text: FIG. 3 illustrates the effects of compounds on Human Umbilical Vein Endothelial Cells (HUVEC) cell invasion. Becton-Dickinson (BD) Biocoat® Matrigel® invasion chambers were used to construct dose response curves of the compounds for invasion of HUVECs. n=3±SD;
A second assay was also used to evaluate the analogs for potential antiangiogenic activity. The complex process of endothelial cell invasion and migration are key events during angiogenesis. The ability of compounds to inhibit the invasion and migration of endothelial cells through a biological membrane matrix was evaluated. Specifically, the ability of the 2-ME2 analogs, 15-dehydro-2-ME2, 14-dehydro-2-ME2 and 2-ME2-15α,16α to inhibit the invasion and migration of human umbilical vein endothelial cells (HUVEC) through Matrigel® basement membrane material and a PET membrane with 8 μm pores was evaluated. HUVECs were obtained from BioWhittaker and were used during passages of 2 to 6. BD Biocoat® Matrigel® invasion chambers were used for the assays. These modified Boyden chambers have a PET membrane with 8 μm pores that have been coated with Matrigel®. The membrane separates the upper chamber from the lower chamber. HUVECs were plated into the top chamber in media containing 0.1% bovine serum albumin with either a test compound or vehicle and allowed to invade and migrate through pores for 24 hours. The media in the lower chamber contained the chemoattractant, 10% fetal bovine, serum. Following the incubation period the cells on the top of the membrane were removed with a cotton swab and the cells that had migrated through the pores to the lower surface of the membrane were stained with hematoxylin and eosin and counted microscopically. Experiments were conducted in duplicate and the numbers of cells that migrated were counted in 10 microscope fields per transwell chamber. The data are expressed as percent of vehicle control invasion. Dose response curves were generated and are shown in FIG. 3 and the IC50s for inhibition of HUVEC invasion were determined and are presented above in Table 4. All of the 2-ME2 analogs inhibited HUVEC invasion.

[9] = system: MDA-MB-435 breast cancer xenograft; test: MDA-MB-435 breast cancer xenograft model; format: in vivo, mice; conditions: for tumor growth delay: intraperitoneally daily for 30 days, time for median to reach tumor burden of 1500 mg vs control; for antitumor effect compared with 2-ME2: tumor burden versus time
Experimental: FIG. 4 illustrates the effects of compounds in an MDA-MB-435 breast cancer xenograft model. The data are the means of the groups ±SEM. Statistical significance (P<0.05) is indicated by an asterisk;
The analogs were tested for antitumor activity using an MDA-MB-435 breast cancer xenograft model. Tumor fragments of MDA-MB-435 (30 mg) were implanted subcutaneously into female athymic NCr-nu mice (SWF-1) weighing approximately 24 g. The tumor fragments were harvested from nude mice hosts. Animal weight and tumor dimensions were measured twice weekly with calipers and tumor weights estimated using 2-dimensional measurements of length and width and the formula [1×(w)^2]/2. When the tumors reached an approximate size equivalent to 175 mg (13 days after implantation) the mice were randomized to treatment or control groups and treatments were begun. The compounds were administered intraperitoneally daily for 30 days on the basis of individual animal body weights. Treatment groups contained 10 mice and the vehicle treated control group consisted of 20 mice. The mean tumor burdens were plotted for each treatment group and compared to controls. The means of the tumor burden data were analyzed for differences using a one-sided Student's t-test, with a P<0.05 considered to be significant difference. Tumor growth delay, the difference between the time for the median of each group (treatment and control) to reach a tumor burden of 1500 mg was calculated.

[10] = system: 6 human tumor cell lines; test: SRB antiproliferative assay, panel of tumor cell lines; format: cell-based; conditions: for potency compared with 2-ME2, tumor cell lines: in words, 15-dehydro-2-ME2: MDA-MB-435, NCI/ADR, PC3, HeLa and SK-OV-3
Experimental: as §4, §1, §2

| SMILES | IC50 [1] | NCI-ADR/MDA-MB-435 resistance factor [1] | IC50 [2] | IC50 [3] | IC50 [4] | IC50 [5] | IC50 [6] | potency relative to 2-ME2, HUVEC proliferation [7] | IC50 [7] | potency relative to 2-ME2 in inhibiting HUVEC invasion [8] | IC50 [8] | tumor growth delay [9] | antitumor effect compared with 2-ME2 [9] | potency compared with 2-ME2, tumor cell lines [10] | NCI-ADR/MDA-MB-435 resistance factor ([1]; listed as vinblastine) | potency compared with 2-ME2 ([6]; MDA-MB-435 cell line, in words) | potency relative to 2-ME2 [5] | potency relative to 2-ME2 ([10]; 5 of the 6 cell lines tested) | days with statistically significant differences between control and treated tumors ([9]; one-sided Student's t-test, P<0.05) |
| --- | --- | --- | --- | --- | --- | --- | --- | --- | --- | --- | --- | --- | --- | --- | --- | --- | --- | --- | --- |
| COc1cc2c(cc1O)CCC1C2CC[C@@]2(C)C1[C@H]1OC(C)(C)O[C@H]1[C@@H]2O (stereo partly drawn) [2-ME2-15α, 16α, 2-Methoxy-3,15α,16α,17β-tetrahydroxyestra-1,3,5(10)-triene 15,16-acetonide] | 4.21 ± 0.6 µM | 1.30 | 2.98 ± 0.24 µM | 5.13 ± 1.53 µM | 5.16 ± 0.99 µM | 6.78 ± 0.62 µM | 3.24 ± 0.35 µM | less potent | 11.9 ± 2.17 µM | less potent | 16 ± 1.98 µM | 11.3 days | superior to 2-ME2 | generally less potent than 2-ME2 |  |  |  |  |  |
| CC[C@]1(O)C[C@@H]2CN(CCc3c([nH]c4ccccc34)[C@@](C(=O)OC)(c3cc4c(cc3OC)N(C)[C@H]3[C@@](O)(C(=O)OC)[C@H](OC(C)=O)[C@]5(CC)C=CCN6CC[C@]43[C@@H]65)C2)C1 [Vinblastine, reference compound] | 0.43 ± 0.07 µM | 139.61 |  |  |  |  | 0.00308 ± 9e-05 µM |  |  |  |  |  |  |  | 140 |  |  |  |  |
| COc1cc2c(cc1O)CCC1C2CC[C@@]2(C)C1CC[C@@H]2O (stereo partly drawn) [2-ME2, 2-Methoxyestradiol, reference compound] | 0.38 ± 0.01 µM | 0.28 | 0.45 ± 0.04 µM | 2.22 ± 0.15 µM | 1.79 ± 0.24 µM | 4.26 ± 0.95 µM | 1.38 ± 0.1 µM |  | 0.7 ± 0.11 µM |  | 1.99 ± 0.39 µM |  |  |  |  |  |  |  |  |
| COc1cc2c(cc1O)CC=C1[C@@H]2CC[C@]2(C)[C@@H](O)CC[C@@H]12 [7-dehydro-2-ME2, 2-Methoxyestra-1,3,5(10), 7-tetraen-3,17β-diol] | 2.54 ± 0.44 µM | 1.29 |  |  | 4.49 ± 0.18 µM |  | 1.97 ± 0.4 µM | less potent | 4.39 ± 0.37 µM |  |  |  |  | generally less potent than 2-ME2 |  | almost equipotent |  |  |  |
| COc1cc2c(cc1O)CC[C@H]1C3=CC[C@H](O)[C@@]3(C)CC[C@H]21 [14-dehydro-2-ME2, 2-Methoxyestra-1,3,5(10), 14-tetraen-3,17β-diol] | 0.056 ± 0.01 µM | 1.0 | 0.05 ± 0.02 µM | 0.35 ± 0.09 µM | 0.15 ± 0.07 µM | 1.58 ± 0.81 µM | 0.056 ± 0.002 µM | more potent than 2-ME2 | 0.049 µM | more than 6 times | 0.3 ± 0.02 µM | 10.0 days | superior to 2-ME2 |  |  |  | 2.7 fold | 6-24 fold |  |
| CC(=O)O[C@H]1C(=O)[C@@]2(C)[C@H]([C@H](OC(=O)c3ccccc3)[C@]3(O)C[C@H](OC(=O)[C@H](O)[C@@H](NC(=O)c4ccccc4)c4ccccc4)C(C)=C1C3(C)C)[C@]1(OC(C)=O)CO[C@@H]1C[C@@H]2O [Taxol ®, reference compound] | 4.46 ± 0.61 µM | 2218.91 |  |  |  |  | 0.00201 ± 0.0003 µM |  |  |  |  |  |  |  |  |  |  |  |  |
| COc1cc2c(cc1O)CC[C@@H]1[C@@H]2CC[C@]2(C)[C@@H](O)C=C[C@@H]12 [15-dehydro-2-ME2, 2-Methoxyestra-1,3,5(10), 15-tetraen-3,17β-diol] | 0.49 ± 0.06 µM | 0.57 | 0.43 ± 0.08 µM | 1.82 ± 0.98 µM | 1.37 ± 0.26 µM | 1.25 ± 0.32 µM | 0.86 ± 0.11 µM | equipotent with the parental compound | 0.72 ± 0.02 µM | equipotent with 2-ME2 | 2.07 ± 0.08 µM | 7.5 days | superior to 2-ME2 | approximately equal in potency to 2-ME2 |  |  | over three times more potent |  | days 16-26 and day 36 |
